From patent publication US20140038953A1, “COMPOSITIONS AND METHODS FOR CARDIOVASCULAR DISEASE” (THE GENERAL HOSPITAL CORPORATION, priority 2011, published 2014)
“Also recorded” adds a separate entry of the source.

Assays:
[1] = tested on: C57BL/6 mice; experiment: Blood biochemical analysis in WT mice fed a high fat diet; assay type: in vivo
Experimental: Female mice deficient for the low density lipoprotein receptor (LDLR^−/−) on a C57BL/6 background with appropriate control mice mice (eight weeks of age) were obtained from Jackson Laboratories (Bar Harbor, Me.). Animals were fed a western style diet formulated to match Paigen's Atherogenic Rodent Diet (42% fat, 0.15% cholesterol, 19.5% casein; Research Diets Inc., New Brunswick, N.J.).
[…], white blood count, hematocrit, hemoglobin, and platelets were analyzed using a HemaTrue™ Hematology Analyzer (Heska AG, Switzerland). Urea nitrogen, glucose, alkaline phosphatase, total protein, alanine transaminase and creatinine were determined using a Spotchem EZ SP-4430 POCT analyzer (Arkray, Inc., Kyoto, Japan). HDL and LDL levels were determined using a fluorescence quantification kit (K613-100, Biovision, Mountain View, Calif.)

[2] = tested on: LDLR−/− mice; experiment: Hepatic steatosis in LDLR−/− mice on high fat diet; assay type: in vivo; conditions: high fat diet 20 weeks, 2.5 mg/kg ip daily
Experimental: Aortas were either immediately embedded and cryopreserved using optimal cutting-temperature medium (Sakura Tissue-Tek, Zoeterwoude, The Netherlands) or fixed in paraformaldehyde and embedded in parafin. The presence of calcification was determined by staining tissue sections with Alizarin red or Von Kossa. Lipid accumulation in tissue sections was visualized by staining with Oil Red O. Liver sections were prepared from paraformaldehyde-fixed tissue and stained with hematoxylin and eosin.

[3] = biological target: T1, HMG-CoA reductase (Homo sapiens, UniProt P04035); experiment: HMG-CoA reductase activity assay; assay type: biochemical; conditions: compound 13 at 50 nM and 100 nM
T1 construct: purchased Sigma-Aldrich CS1090
T1 sequence (P04035 426-888 limits assumed): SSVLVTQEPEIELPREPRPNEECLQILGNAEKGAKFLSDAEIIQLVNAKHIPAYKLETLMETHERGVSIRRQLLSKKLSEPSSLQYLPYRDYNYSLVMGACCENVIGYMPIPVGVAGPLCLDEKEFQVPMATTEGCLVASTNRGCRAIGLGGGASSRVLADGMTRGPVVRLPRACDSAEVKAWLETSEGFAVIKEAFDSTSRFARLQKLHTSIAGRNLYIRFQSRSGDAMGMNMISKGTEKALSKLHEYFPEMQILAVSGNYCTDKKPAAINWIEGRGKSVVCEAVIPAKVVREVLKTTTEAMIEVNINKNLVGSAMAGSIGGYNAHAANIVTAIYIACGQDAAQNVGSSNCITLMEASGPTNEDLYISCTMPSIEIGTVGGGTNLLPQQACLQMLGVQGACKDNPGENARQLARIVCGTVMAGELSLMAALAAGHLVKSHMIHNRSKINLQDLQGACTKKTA
Source text: Enzyme activity was quantified using a commercially available Assay Kit (CS1090 HMG-CoA Reductase Kit, Sigma-Aldrich, St. Louis, Mo.)

[4] = tested on: phosphorylated SMADs 1/5/8; experiment: p-SMAD1/5/8 immunofluorescence in atherosclerotic lesions of LDLR−/− mice; assay type: in vivo
Source text: BMP signaling activity in the nascent lesions of LDLR^−/− mice was characterized. Phosphorylated BMP-responsive SMADs (p-SMAD1/5/8), effectors of the BMP signaling pathway that are retained in the nuclei of activated cells, were detected by immunofluorescence in endothelial cells, macrophages, and the media of atheromatous lesions (FIG. 1b), particularly in the lesser curvature of the aorta, beginning three weeks on HFD. Activation of BMP signaling persisted for at least 20 weeks and was abundant near calcific lesions (FIG. 3). To confirm that the activation of SMAD1/5/8 observed in the vessels of LDLR^−/− mice was attributable to BMP signaling, a BMP type I receptor inhibitor, compound 13, was administered (2.5 mg/kg ip daily for five days) to LDLR^−/− mice that had received HFD for 6 weeks.
For immunofluorescence, frozen sections were post-fixed in cold methanol and incubated with polyclonal antibodies specific for p-SMAD1/5/8 (1:100, Cell Signaling, Danvers, Mass.) or MAC2 (1:100, Cedarlane, Burlington, ON) followed by FITC labeled Goat Anti-Rabbit IgG or Rhodamine Goat Anti-Rat IgG (both Jackson Immuno Research, West Grove, Pa.), respectively.
LDLr−/− mice were started on a hypercholesterolemic diet at 8 weeks, and treated with either vehicle (saline) or a BMP inhibitor positive control compound (compound 13, 2.5 mg/kg/d intraperitoneally) for an additional 8 weeks. Aortae were harvested and fixed, and then stained with antibodies sensitive for the BMP effector molecule, phosphorylated-SMAD1/5/8, and counterstained with DAPI nuclear stain. Within 6-8 weeks of being subjected to a high fat diet, LDR−/− mice developed fatty lesions in the intima of the aortic root, based on traditional histochemical staining techniques (data not shown). […] Thus, the cellular components of lipid rich plaques, predominantly macrophage-derived foam cells, had evidence of intense activation of the BMP signaling pathway. […]

[5] = female C57BL/6 WT mice, high fat diet 30 weeks, 2.5 mg/kg ip daily, mean ± SEM

Compound: c1ccc2c(-c3cnn4cc(-c5ccc(N6CCNCC6)cc5)cnc34)ccnc2c1 [Compound 13, 4-[6-(4-piperazin-1-ylphenyl)pyrazolo[1,5-a]pyrimidin-3-yl]quinoline]
- Alanine transaminase [1, 5]: 159 ± 19 IU/L
- Alkaline phosphatase [1, 5]: 109 ± 8 IU/L
- Blood urea nitrogen [1, 5]: 25 ± 1 mg/dL
- Cholesterol [1, 5]: 183 ± 6 mg/dL
- Creatinine [1, 5]: 0.5 ± 0.0 mg/dL
- Glucose [1, 5]: 311 ± 12 mg/dL
- Hemoglobin [1, 5]: 13.5 ± 1.0 g/dL
- Total protein [1, 5]: 4.7 ± 0.2 g/dL
- Triglycerides [1, 5]: 82 ± 21 mg/dL
- total serum cholesterol vs vehicle ([1]; wild-type animals on a HFD, in words): reduced total serum cholesterol
- hepatic steatosis ([2]; 2.5 mg/kg): protected from hepatic steatosis
- hepatic steatosis ([2]; listed as compound 13, 2.5 mg/kg): could be prevented
- HMG-CoA reductase enzyme activity in vitro [3]: did not inhibit; also recorded: lack of impact
- p-SMAD1/5/8 within atherosclerotic lesions ([4]; LDLR−/− mice on high fat diet 6 weeks, treated five days, compound 13 2.5 mg/kg ip daily, ALK3-Fc 2 mg/kg ip every other day): suppressed phosphorylation of SMADs 1/5/8; also recorded: markedly diminished the detection of p-SMAD1/5/8
- p-SMAD1/5/8 staining in aorta ([4]; LDLR−/− mice treated during 6 weeks of high fat diet, compound 13 2.5 mg/kg ip daily, ALK3-Fc every other day, 2.5 mg/kg): decreased staining for phosphorylated SMAD1/5/8
- phosphorylated-SMAD1/5/8 staining in atheroma ([4]; LDLr−/− mice, hypercholesterolemic diet and treatment 8 weeks, 2.5 mg/kg/d ip): greatly diminished
